Data taken from patent US7943770B2, “Fused quinoline derivative and use thereof” (Takeda Pharmaceutical Company Limited, priority 2004, dated 2011).
pIC50: −log10 of the molar value.

Target: T1, hNK2 receptor (Homo sapiens, UniProt P21452)
T1 construct: host or cells: CHO cells
T1 sequence (P21452 1-398): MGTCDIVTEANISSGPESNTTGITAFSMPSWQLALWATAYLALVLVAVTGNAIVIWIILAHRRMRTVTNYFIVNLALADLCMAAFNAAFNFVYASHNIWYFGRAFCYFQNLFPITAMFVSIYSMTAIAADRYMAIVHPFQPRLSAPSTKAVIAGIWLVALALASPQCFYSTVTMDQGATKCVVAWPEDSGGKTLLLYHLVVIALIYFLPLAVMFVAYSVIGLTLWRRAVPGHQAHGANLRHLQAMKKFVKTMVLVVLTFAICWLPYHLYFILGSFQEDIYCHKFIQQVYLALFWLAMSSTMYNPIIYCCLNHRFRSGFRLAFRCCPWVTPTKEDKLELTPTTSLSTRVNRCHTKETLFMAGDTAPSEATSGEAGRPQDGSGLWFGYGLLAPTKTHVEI
Test: Radio-ligand ([125I]-NKA) receptor binding inhibitory activity using membrane fraction of hNK2 receptor-expressing CHO cell
Settings: membrane fraction of hNK2 receptor-expressing CHO cells, 25° C., 30 min
Outline: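 Membranes from hNK2-expressing CHO cells (20 μg/mL suspension) incubated with test compound and [125I]-NKA ([…] solution as added) in Tris-HCl pH 7.4 with BSA, protease inhibitors, 3 mM MnCl2, 25 °C, 30 min. Bound radioactivity by GF/C filtration and scintillation; inhibition expressed relative to specific binding (total minus unlabeled-NKA non-specific).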

Row | Structure (SMILES) | pIC50
1 | CCOC(=O)CCC(=O)N[C@@H]1CCCC[C@@H]1C(=O)N1CC[C@@H]2[C@H](c3ccccc3)Nc3ccccc3[C@@H]21 [Example 108] | > 8.00
2 | COC(=O)CCCCC(=O)N[C@@H]1CCCC[C@@H]1C(=O)N1CC[C@@H]2[C@H](c3ccccc3)Nc3ccccc3[C@@H]21 [Example 116, Methyl 6-oxo-6-[((1R,2S)-2-{[(3aR,4R,9bR)-4-phenyl-2,3,3a,4,5,9b-hexahydro-1H-pyrrolo[3,2-c]quinolin-1-yl]carbonyl}cyclohexyl)amino]hexanoate] | > 8.00
3 | O=C(CCCCCN1CCOCC1)N[C@@H]1CCCC[C@@H]1C(=O)N1CC[C@@H]2[C@H](c3ccccc3)Nc3ccccc3[C@@H]21 [Example 117, 6-Morpholin-4-yl-N-((1R,2S)-2-{[(3aR,4R,9bR)-4-phenyl-2,3,3a,4,5,9b-hexahydro-1H-pyrrolo[3,2-c]quinolin-1-yl]carbonyl}cyclohexyl)hexanamide] | > 8.00
4 | O=C(CCCCCO)N[C@@H]1CCCC[C@@H]1C(=O)N1CC[C@@H]2[C@H](c3ccccc3)Nc3ccccc3[C@@H]21 [Example 119, 6-Hydroxy-N-((1R,2S)-2-{[(3aR,4R,9bR)-4-phenyl-2,3,3a,4,5,9b-hexahydro-1H-pyrrolo[3,2-c]quinolin-1-yl]carbonyl}cyclohexyl)hexanamide] | > 8.00
5 | O=C(/C=C/c1c[nH]cn1)N[C@@H]1CCCC[C@@H]1C(=O)N1CC[C@@H]2[C@H](c3ccccc3)Nc3ccccc3[C@@H]21 [Example 128, (2E)-3-(1H-Imidazol-4-yl)-N-((1R,2S)-2-{[(3aR,4R,9bR)-4-phenyl-2,3,3a,4,5,9b-hexahydro-1H-pyrrolo[3,2-c]quinolin-1-yl]carbonyl}cyclohexyl)acrylamide] | > 8.00
6 | O=C(N[C@@H]1CCCC[C@@H]1C(=O)N1CC[C@@H]2[C@H](c3ccccc3)Nc3ccccc3[C@@H]21)c1ncc[nH]1 [Example 129, N-((1R,2S)-2-{[(3aR,4R,9bR)-4-Phenyl-2,3,3a,4,5,9b-hexahydro-1H-pyrrolo[3,2-c]quinolin-1-yl]carbonyl}cyclohexyl)-1H-imidazole-2-carboxamide] | > 8.00
7 | O=C(N[C@@H]1CCCC[C@@H]1C(=O)N1CC[C@@H]2[C@H](c3ccccc3)Nc3ccccc3[C@@H]21)c1ccc2[nH]cnc2c1 [Example 133, N-((1R,2S)-2-{[(3aR,4R,9bR)-4-Phenyl-2,3,3a,4,5,9b-hexahydro-1H-pyrrolo[3,2-c]quinolin-1-yl]carbonyl}cyclohexyl)-1H-benzimidazole-5-carboxamide] | > 9.00
8 | O=C(/C=C/c1ncc[nH]1)N[C@@H]1CCCC[C@@H]1C(=O)N1CC[C@@H]2[C@H](c3ccccc3)Nc3ccccc3[C@@H]21 [Example 134, (2E)-3-(1H-Imidazol-2-yl)-N-((1R,2S)-2-{[(3aR,4R,9bR)-4-phenyl-2,3,3a,4,5,9b-hexahydro-1H-pyrrolo[3,2-c]quinolin-1-yl]carbonyl}cyclohexyl)acrylamide] | > 9.00
9 | O=C(Nc1ccccc1)N[C@@H]1CCCC[C@@H]1C(=O)N1CC[C@@H]2[C@H](c3ccccc3)Nc3ccccc3[C@@H]21 [Example 135, N-phenyl-N′-((1R,2S)-2-{[(3aR,4R,9bR)-4-phenyl-2,3,3a,4,5,9b-hexahydro-1H-pyrrolo[3,2-c]quinolin-1-yl]carbonyl}cyclohexyl)urea] | > 9.00
10 | O=C(Nc1ccc(Cl)cc1)N[C@@H]1CCCC[C@@H]1C(=O)N1CC[C@@H]2[C@H](c3ccccc3)Nc3ccccc3[C@@H]21 [Example 136, N-(4-Chlorophenyl)-N′-((1R,2S)-2-{[(3aR,4R,9bR)-4-phenyl-2,3,3a,4,5,9b-hexahydro-1H-pyrrolo[3,2-c]quinolin-1-yl]carbonyl}cyclohexyl)urea] | > 8.00
11 | Cc1ccc(NC(=O)N[C@@H]2CCCC[C@@H]2C(=O)N2CC[C@@H]3[C@H](c4ccccc4)Nc4ccccc4[C@@H]32)cc1 [Example 138, N-(4-Methylphenyl)-N′-((1R,2S)-2-{[(3aR,4R,9bR)-4-phenyl-2,3,3a,4,5,9b-hexahydro-1H-pyrrolo[3,2-c]quinolin-1-yl]carbonyl}cyclohexyl)urea] | > 9.00
12 | O=C(Nc1ccc(C(F)(F)F)cc1)N[C@@H]1CCCC[C@@H]1C(=O)N1CC[C@@H]2[C@H](c3ccccc3)Nc3ccccc3[C@@H]21 [Example 140, N-((1R,2S)-2-{[(3aR,4R,9bR)-4-Phenyl-2,3,3a,4,5,9b-hexahydro-1H-pyrrolo[3,2-c]quinolin-1-yl]carbonyl}cyclohexyl)-N′-[4-(trifluoromethyl)phenyl]urea] | > 8.00
13 | O=C(Nc1cccc(Cl)c1)N[C@@H]1CCCC[C@@H]1C(=O)N1CC[C@@H]2[C@H](c3ccccc3)Nc3ccccc3[C@@H]21 [Example 141, N-(3-Chlorophenyl)-N′-((1R,2S)-2-{[(3aR,4R,9bR)-4-phenyl-2,3,3a,4,5,9b-hexahydro-1H-pyrrolo[3,2-c]quinolin-1-yl]carbonyl}cyclohexyl)urea] | > 8.00
14 | O=C(NCc1ccccc1)N[C@@H]1CCCC[C@@H]1C(=O)N1CC[C@@H]2[C@H](c3ccccc3)Nc3ccccc3[C@@H]21 [Example 143, N-Benzyl-N′-((1R,2S)-2-{[(3aR,4R,9bR)-4-phenyl-2,3,3a,4,5,9b-hexahydro-1H-pyrrolo[3,2-c]quinolin-1-yl]carbonyl}cyclohexyl)urea] | > 8.00
15 | COc1ccc(CNC(=O)N[C@@H]2CCCC[C@@H]2C(=O)N2CC[C@@H]3[C@H](c4ccccc4)Nc4ccccc4[C@@H]32)cc1 [Example 144, N-(4-Methoxybenzyl)-N′-((1R,2S)-2-{[(3aR,4R,9bR)-4-phenyl-2,3,3a,4,5,9b-hexahydro-1H-pyrrolo[3,2-c]quinolin-1-yl]carbonyl}cyclohexyl)urea] | > 8.00
16 | O=C(NCc1ccc(F)cc1)N[C@@H]1CCCC[C@@H]1C(=O)N1CC[C@@H]2[C@H](c3ccccc3)Nc3ccccc3[C@@H]21 [Example 145, N-(4-Fluorobenzyl)-N′-((1R,2S)-2-{[(3aR,4R,9bR)-4-phenyl-2,3,3a,4,5,9b-hexahydro-1H-pyrrolo[3,2-c]quinolin-1-yl]carbonyl}cyclohexyl)urea] | > 8.00
17 | O=C(NCCc1ccccc1)N[C@@H]1CCCC[C@@H]1C(=O)N1CC[C@@H]2[C@H](c3ccccc3)Nc3ccccc3[C@@H]21 [Example 146, N-(2-Phenylethyl)-N′-((1R,2S)-2-{[(3aR,4R,9bR)-4-phenyl-2,3,3a,4,5,9b-hexahydro-1H-pyrrolo[3,2-c]quinolin-1-yl]carbonyl}cyclohexyl)urea] | > 8.00

The next lines start with the values.

Row | pIC50 | Structure (SMILES)
18 | > 9.00 | O=C(N[C@@H]1CCCC[C@@H]1C(=O)N1CC[C@@H]2[C@H](c3ccccc3)Nc3ccccc3[C@@H]21)c1ccc2ccccc2c1 [Example 107, N-((1R,2S)-2-{[(3aR,4R,9bR)-4-Phenyl-2,3,3a,4,5,9b-hexahydro-1H-pyrrolo[3,2-c]quinolin-1-yl]carbonyl}cyclohexyl)-2-naphthamide]
19 | > 8.00 | O=C(CCCCCBr)N[C@@H]1CCCC[C@@H]1C(=O)N1CC[C@@H]2[C@H](c3ccccc3)Nc3ccccc3[C@@H]21 [Example 109, 6-Bromo-N-((1R,2S)-2-{[(3aR,4R,9bR)-4-phenyl-2,3,3a,4,5,9b-hexahydro-1H-pyrrolo[3,2-c]quinolin-1-yl]carbonyl}cyclohexyl)hexanamide]
20 | > 8.00 | O=C(N[C@@H]1CCCC[C@@H]1C(=O)N1CC[C@@H]2[C@H](c3ccccc3)Nc3ccccc3[C@@H]21)c1ccc(Cl)cc1 [Example 114, 4-Chloro-N-((1R,2S)-2-{[(3aR,4R,9bR)-4-phenyl-2,3,3a,4,5,9b-hexahydro-1H-pyrrolo[3,2-c]quinolin-1-yl]carbonyl}cyclohexyl)benzamide]
21 | > 8.00 | O=C(N[C@@H]1CCCC[C@@H]1C(=O)N1CC[C@@H]2[C@H](c3ccccc3)Nc3ccccc3[C@@H]21)c1ccc(CO)cc1 [Example 120, 4-(Hydroxymethyl)-N-((1R,2S)-2-{[(3aR,4R,9bR)-4-phenyl-2,3,3a,4,5,9b-hexahydro-1H-pyrrolo[3,2-c]quinolin-1-yl]carbonyl}cyclohexyl)benzamide]
22 | > 8.00 | O=C(N[C@@H]1CCCC[C@@H]1C(=O)N1CC[C@@H]2[C@H](c3ccccc3)Nc3ccccc3[C@@H]21)c1cnccn1 [Example 127, N-((1R,2S)-2-{[(3aR,4R,9bR)-4-Phenyl-2,3,3a,4,5,9b-hexahydro-1H-pyrrolo[3,2-c]quinolin-1-yl]carbonyl}cyclohexyl)pyrazine-2-carboxamide]
23 | > 8.00 | Cn1ccnc1C(=O)N[C@@H]1CCCC[C@@H]1C(=O)N1CC[C@@H]2[C@H](c3ccccc3)Nc3ccccc3[C@@H]21 [Example 132, 1-Methyl-N-((1R,2S)-2-{[(3aR,4R,9bR)-4-phenyl-2,3,3a,4,5,9b-hexahydro-1H-pyrrolo[3,2-c]quinolin-1-yl]carbonyl}cyclohexyl)-1H-imidazole-2-carboxamide]
24 | > 9.00 | COc1ccc(NC(=O)N[C@@H]2CCCC[C@@H]2C(=O)N2CC[C@@H]3[C@H](c4ccccc4)Nc4ccccc4[C@@H]32)cc1 [Example 137, N-(4-Methoxyphenyl)-N′-((1R,2S)-2-{[(3aR,4R,9bR)-4-phenyl-2,3,3a,4,5,9b-hexahydro-1H-pyrrolo[3,2-c]quinolin-1-yl]carbonyl}cyclohexyl)urea]
25 | > 9.00 | O=C(Nc1ccc(F)cc1)N[C@@H]1CCCC[C@@H]1C(=O)N1CC[C@@H]2[C@H](c3ccccc3)Nc3ccccc3[C@@H]21 [Example 139, N-(4-Fluorophenyl)-N′-((1R,2S)-2-{[(3aR,4R,9bR)-4-phenyl-2,3,3a,4,5,9b-hexahydro-1H-pyrrolo[3,2-c]quinolin-1-yl]carbonyl}cyclohexyl)urea]
